Data as given in patent US9783490B2, “Antimicrobial compounds, their synthesis and applications thereof” (The Secretary of State for Health, priority 2012, dated 2017).
Read-outs that look alike come from different tables or passages of the source.

Experiments:
MRSA (ATCC 33591) = assay: Minimum Inhibitory Concentration, micro-dilution broth; assay type: cell-based, Methicillin resistant S. aureus; settings: for Minimum Inhibitory Concentration MRSA: Drug resistant bacteria
Protocol: (§1) Microorganisms and Culture Conditions: Bacterial strains, S. aureus (MTCC 737) and E. coli (MTCC 443) are purchased from MTCC (Chandigarh, India). MRSA (ATCC 33591), Pseudomonas aeruginosa (ATCC 4676), […]-lactamase producing and drug-resistant Klebsiella pneumonia (ATCC700603), Enterococcus faecium (ATCC 19634) and vancomycin resistant Enterococcus faecium (ATCC 51559) are obtained from ATCC (Rockville, Md., USA).
(§2) E. coli is cultured in Luria Bertani broth (10 g of tryptone, 5 g of yeast extract, and 10 g of NaCl in 1000 mL of sterile distilled water (pH −7) while S. aureus, Pseudomonas aeruginosa (ATCC 4676) and MRSA are grown in Yeast-dextrose broth (1 g of beef extract, 2 g of yeast extract, 5 g of peptone and 5 g of NaCl in 1000 mL of sterile distilled water). For all Enterococcus faecium, Brain Heart Infusion broth (BHI) is used. For solid media 5% agar was used along with above mentioned composition. K. pneumonia was grown in nutrient media (3 g of beef extract and 5 g of peptone in 1000 mL of sterile distilled water). The bacterial samples were freeze dried and stored at −80° C. 5 μl of these stocks were added to 3 mL of the nutrient broth and the culture was grown for 6 h at 37° C. prior to the experiments.
(§3) Antibacterial activity is reported as Minimum Inhibitory Concentration (MIC), i.e. the lowest concentration of the antimicrobial agent that will inhibit the growth of a microorganism after overnight incubation. Water-soluble ACK, NCK and BCK series of compounds are assayed in a modified micro-dilution broth format. Stock solutions are made by serially diluting the compounds using autoclaved Millipore water. Bacteria, to be tested are grown for about 6 hrs in the suitable media containing ˜10^9 cfu/mL (determined through dilution plate technique by spread plate method), which is then diluted to 10^5 cfu/mL using nutrient media. 50 μL of serially diluted compound is added to a 96 well plate containing 150 μL bacterial solutions. Two controls are made; one containing 150 μL of media and 50 μL of compound and the other containing 200 μL of bacterial solution. […] MIC value is determined by taking the average of triplicate O.D. values for each concentration and plotting it against concentration using Origin Pro 8.0 software. The data is then subjected to sigmoidal fitting. From the curve, MIC value is determined, as the point in the curve where the O.D. is similar to that of control having no bacteria. The MIC values and errors of independent experiments are reported as average and standard deviation of triplicates.

E. coli (MTCC 443) = assay: as above; assay type: cell-based, Escherichia coli; settings: for Minimum Inhibitory Concentration E. coli: Drug sensitive bacteria
Protocol: as §1, §2, §3

S. aureus (MTCC 737) = assay: as above; assay type: cell-based, Staphylococcus aureus; settings: for Minimum Inhibitory Concentration S. aureus: Drug sensitive bacteria
Protocol: as §1, §2, §3

[1] = system: Pseudomonas aeruginosa (ATCC 4676); assay: as above; assay type: cell-based; settings: for Minimum Inhibitory Concentration P. aeruginosa: Drug sensitive bacteria
Protocol: as §1, §2, §3

[2] = system: vancomycin resistant Enterococcus faecium (ATCC 51559); assay: as above; assay type: cell-based; settings: for Minimum Inhibitory Concentration VRE: Drug resistant bacteria
Protocol: as §1, §2, §3

[3] = system: drug-resistant Klebsiella pneumonia (ATCC700603); assay: as above; assay type: cell-based; settings: for Minimum Inhibitory Concentration K. pneumonia: Drug resistant bacteria
Protocol: as §1, §2, §3

[4] = system: Enterococcus faecium (ATCC 19634); assay: as above; assay type: cell-based; settings: for Minimum Inhibitory Concentration E. faecium: Drug sensitive bacteria
Protocol: as §1, §2, §3

human RBCs = assay: Haemolytic activity (HC50); assay type: cell-based
Protocol: Erythrocytes are isolated from freshly drawn, heparinized human blood and re-suspended to 5 vol % in PBS (pH 7.4). In a 96-well microtiter plate, 150 μl of erythrocyte suspension is added to 50 μl of serially diluted compound. Two controls are made, one without compound and other with 50 μl of 1 vol % solution of Triton X-100. The plate is incubated for about 1 hr at a temperature of about 37° C. The plate is then centrifuged at 3,500 rpm for about 5 min, 100 μl of the supernatant from each well is transferred to a fresh microtiter plate, and absorbance at 540 nm is measured. Percentage of hemolysis is determined as (A−A0)/(Atotal−A0)×100, where A is the absorbance of the test well, A0 the absorbance of the negative controls (without compound), and A total the absorbance of 100% hemolysis wells (with Triton X-100), when absorbance is read at 540 nm.
Toxicity studies of the compounds are carried out on freshly drawn human RBCs. Toxicity of the antimicrobial compounds of the present disclosure is defined by their HC50 values illustrated in Table 3, i.e. the concentration of compound at which 50% of the blood cells are lysed. Haemolytic studies conducted herein illustrates that the antimicrobial compounds provided by the instant disclosure are selective towards drug sensitive bacteria and drug resistant bacteria over human RBCs, thus establishing the non-toxicity of the present compounds.

[5] = concentration at which 50% of the blood cells are lysed, human RBCs

Row | SMILES | MIC value against methicillin-resistant S. aureus (MRSA (ATCC 33591)) | Minimum Inhibitory Concentration MRSA (MRSA (ATCC 33591)) | MIC value against E. coli (E. coli (MTCC 443)) | Minimum Inhibitory Concentration E. coli (E. coli (MTCC 443)) | MIC value against S. aureus (S. aureus (MTCC 737)) | Minimum Inhibitory Concentration S. aureus (S. aureus (MTCC 737)) | MIC value against P. aeruginosa [1] | Minimum Inhibitory Concentration P. aeruginosa [1] | MIC value against vancomycin-resistant E. faecium [2] | Minimum Inhibitory Concentration VRE [2] | MIC value against K. pneumonia [3] | Minimum Inhibitory Concentration K. pneumonia [3] | MIC value against E. faecium [4] | Minimum Inhibitory Concentration E. faecium [4] | HC50 (human RBCs; [5]) | HC50 (human RBCs)
1 | CCCCCCCCCCN(Cc1cccc2ccccc12)C(=O)[C@@H](N)CCCCN.O=C(O)C(F)(F)F [NCK-10, Lys-N-decyl-1-Aminomethylnaphthalene trifluoroacetate] | ~2.6 µg/mL | 2.6 µg/mL | ~4 µg/mL | 4 µg/mL | ~2.5 µg/mL | 2.5 µg/mL | ~3 µg/mL | 3 µg/mL | ~1.6 µg/mL | 1.6 µg/mL | ~5.8 µg/mL | 5.8 µg/mL | ~3.5 µg/mL | 3.5 µg/mL | 54 µg/mL | –
2 | CCCCCCN(Cc1ccccc1)C(=O)[C@@H](N)CCCCN.O=C(O)C(F)(F)F [BCK-6, Lys-N-hexyl-1-Aminomethylbenzene trifluoroacetate] | – | >100 µg/mL | – | >100 µg/mL | – | >100 µg/mL | – | >100 µg/mL | – | – | – | >100 µg/mL | – | >100 µg/mL | – | >1000 µg/mL
3 | CCCCN(Cc1ccc(-c2ccccc2)cc1)C(=O)[C@@H](N)CCCCN [Compound 6a, Lys-N-Butyl-1-Aminomethylbiphenyl] | – | – | – | – | – | 60 µg/mL | – | – | – | – | – | – | – | – | – | –
4 | CCCCCCCCN(Cc1c2ccccc2c(Cl)c2ccccc12)C(=O)[C@@H](N)CCCCN.O=C(O)C(F)(F)F [ACK-8, Lys-N-octyl-10-Aminomethyl-9-chloroanthracene trifluoroacetate] | ~2.3 µg/mL | 2.3 µg/mL | ~2.9 µg/mL | 2.9 µg/mL | ~2.2 µg/mL | 2.2 µg/mL | ~3.8 µg/mL | 3.8 µg/mL | ~3 µg/mL | 3 µg/mL | ~4.3 µg/mL | 4.3 µg/mL | ~2.5 µg/mL | 2.5 µg/mL | 64 µg/mL | –
5 | CCCCCCN(Cc1ccc(-c2ccccc2)cc1)C(=O)[C@@H](N)CCCCN [Compound 6b, Lys-N-hexyl-1-Aminomethylbiphenyl] | – | – | – | – | – | 7.5 µg/mL | – | – | – | – | – | – | – | – | – | –
6 | CCCCCCN(Cc1cccc2ccccc12)C(=O)[C@@H](N)CCCCN.O=C(O)C(F)(F)F [NCK-6, Lys-N-hexyl-1-Aminomethylnaphthalene trifluoroacetate] | – | 65 µg/mL | – | 25 µg/mL | – | 20 µg/mL | about 11 μg/ml | 11 µg/mL | – | 54 µg/mL | – | 100 µg/mL | – | 34 µg/mL | 508 µg/mL | –
7 | CCCCCCCCCCCCCCN(Cc1ccccc1)C(=O)C(N)CCCCN.O=C(O)C(F)(F)F (centres unmarked) [BCK-14, Lys-N-tetradecyl-1-Aminomethylbenzene trifluoroacetates] | ~2.5 µg/mL | 2.5 µg/mL | ~3.1 µg/mL | 3.1 µg/mL | ~3.1 µg/mL | 3.1 µg/mL | ~2.8 µg/mL | 2.8 µg/mL | ~2.5 µg/mL | 2.5 µg/mL | ~4 µg/mL | 4 µg/mL | ~2 µg/mL | 2 µg/mL | 50 µg/mL | –
8 | CCCCN(Cc1ccccc1)C(=O)[C@@H](N)CCCCN.O=C(O)C(F)(F)F [BCK-4, Lys-N-butyl-1-Aminomethylbenzene trifluoroacetate] | – | >100 µg/mL | – | >100 µg/mL | – | >100 µg/mL | – | >100 µg/mL | – | – | – | >100 µg/mL | – | >100 µg/mL | – | >1000 µg/mL
9 | CCCCCCCCN(Cc1c2ccccc2cc2ccccc12)C(=O)[C@@H](N)CCCCN.O=C(O)C(F)(F)F [Compound 8c, Lys-N-octyl-9-Aminomethylanthracene trifluoroacetate] | – | 3.6 µg/mL | – | – | – | 2.2 µg/mL | – | – | – | – | – | – | – | – | – | 42 µg/mL
10 | CCCCCCCCN(Cc1ccc(-c2ccccc2)cc1)C(=O)C(N)CCCCN (centres unmarked) [Compound 6c, Lys-N-octyl-1-Aminomethylbiphenyl] | – | – | – | – | – | 1.3 µg/mL | – | – | – | – | – | – | – | – | – | –
